{"source": "patent US20240131173A1", "about": "“PROTACS WITH TRANSCRIPTION FACTOR TARGETING MOIETIES” (Beth Israel Deaconess Medical Center, Inc., priority 2021, published 2024)", "key": {"[1]": {"tested_on": "HeLa cells", "test": "Cell growth curve assay (cell number)", "assay_type": "cell-based, human", "details": "10 ug/mL", "method": "For cell growth curve assay, HeLa cells (10, 000/well) in 12-well plate were transfected with individual TF-PROTAC, then the cells were trypsined and the cell number were counted at indicated time. For the clonal formation assay, HeLa cells were transfected with individual TF-PROTAC for 12 hours, followed by further plated into 6-well plate (1,000/well). Three weeks later, the cells were fixed in fixation buffer (acetic acid: methanol=1:7) and stained with 0.4% crystal violet in 20% ethanol. Then clonal number were quantified by Image J software. As various changes can be made in the above-described subject matter without departing from the scope and spirit of the present disclsoure, it is intended that all subject matter contained in the above description, or defined in the appended claims, be interpreted as descriptive and illustrative. Many modifications and variations of the present disclosure are possible in light of the above teachings. Accordingly, the present description is intended to embrace all such alternatives, modifications and variances which fall within the scope of the appended claims."}, "[2]": {"target": "p65 (Homo sapiens, UniProt Q04206)", "sequence (Q04206 whole entry)": "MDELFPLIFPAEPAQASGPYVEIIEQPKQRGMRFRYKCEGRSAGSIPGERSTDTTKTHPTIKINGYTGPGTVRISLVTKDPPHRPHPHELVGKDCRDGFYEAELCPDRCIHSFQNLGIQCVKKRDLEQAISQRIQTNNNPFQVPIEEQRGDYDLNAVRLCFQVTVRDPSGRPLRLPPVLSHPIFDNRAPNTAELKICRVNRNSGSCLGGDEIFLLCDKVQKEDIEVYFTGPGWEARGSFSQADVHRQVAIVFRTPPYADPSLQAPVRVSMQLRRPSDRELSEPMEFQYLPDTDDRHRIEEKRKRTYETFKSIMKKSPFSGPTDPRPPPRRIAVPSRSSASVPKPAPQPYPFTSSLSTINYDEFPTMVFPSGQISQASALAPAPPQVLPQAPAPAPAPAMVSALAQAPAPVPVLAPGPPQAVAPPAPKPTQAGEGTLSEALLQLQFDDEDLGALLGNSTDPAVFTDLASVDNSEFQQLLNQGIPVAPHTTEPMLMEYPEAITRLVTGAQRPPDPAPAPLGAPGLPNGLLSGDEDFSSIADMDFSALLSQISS", "test": "In vivo ubiquitination assay of p65 (Ni-NTA pulldown)", "assay_type": "cell-based", "details": "HEK293T cells, Flag-p65 24 hours, then dNF-κB 12 hours", "method": "Denatured in vivo ubiquitination assays were performed as previously described 41. Briefly, HEK293T cells were firstly transfected with Flag-p65 or HA-E2F1 for 24 hours, followed by additional transfection of individual TF-PROTAC for another 12 hours. Before been harvested, HEK293T cells were treated with 30 μM of MG132 for 4 hours. After having been harvested in denatured buffer A (6 M guanidine-HCI, pH 8.0, 0.1 M Na2HPO4/NaH2PO4, and 10 mM imidazole) and sonication for 10 seconds, cell lysis was incubation with Ni-nitrilotriacetic acid (NTA) matrices under rotation for 3 hours at room temperature. The pulldown products were washed sequentially twice in buffer A, twice in buffer A/TI mixture (buffer A, buffer TI=1:3, v/v), and once in buffer TI (25 mM tris-HCl, pH 6.8, and 20 mM imidazole). The ubiquitinated proteins were finally separated by 7% SDS-PAGE and blotted with individual antibody."}, "[3]": {"target": "T1, VHL E3-PROTAC-p65 ternary complex (Homo sapiens, UniProt P40337+Q04206)", "T1 construct": "made in house; host or cells: E. coli BL21(DE3) for the GST-VHL/Elongin B/C complex; HEK293T lysate for Flag-p65", "T1 sequence (P40337 whole entry)": "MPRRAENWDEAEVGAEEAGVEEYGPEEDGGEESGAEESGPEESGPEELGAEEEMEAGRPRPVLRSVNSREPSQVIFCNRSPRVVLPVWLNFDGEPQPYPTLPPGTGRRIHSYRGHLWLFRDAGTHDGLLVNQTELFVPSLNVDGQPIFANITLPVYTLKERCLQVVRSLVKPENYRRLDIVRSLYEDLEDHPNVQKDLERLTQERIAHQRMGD", "T1 sequence (Q15370 whole entry partner)": "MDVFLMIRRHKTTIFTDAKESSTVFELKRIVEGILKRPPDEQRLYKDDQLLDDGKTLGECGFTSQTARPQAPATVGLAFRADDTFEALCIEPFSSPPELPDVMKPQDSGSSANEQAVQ", "T1 sequence (Q15369 whole entry partner)": "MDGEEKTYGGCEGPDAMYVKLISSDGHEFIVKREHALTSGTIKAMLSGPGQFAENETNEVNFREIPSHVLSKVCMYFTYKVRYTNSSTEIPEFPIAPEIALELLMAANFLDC", "T1 sequence (Q04206 whole entry)": "as the sequence (Q04206 whole entry) above", "test": "GST pulldown assay of VHL E3 ligase complex and p65 with TF-PROTAC", "assay_type": "binding", "details": "GST-VHL complex from E. coli, HEK293T lysate with Flag-p65, in vitro", "source_text": "Furthermore, dNF-κB is capable of recruiting VHL E3 ubiquitin ligase to POI, NF-κB. […] However, dNF-κB obtained in current stage could not efficiently promote the degradation of p65 in cells, which prompted further optimization of the length of linker between the VHL ligand and DNA oligomer moieties for achieving efficient destruction of NF-κB in cells.\npGEX-GST-VHL/ElonginB construct was kindly gift from Dr. William Kaelin, Jr. at Dana-Farber Cancer Institute, Harvard Medical School. pGEX-GST-Elongin C plasmid was generated by subcloning Elongin C CDS into the BamHI and Xhol sites of pGEX-4T1-GST vector. The GST-VHL/ElonginB/C complex was purified as described 43. Briefly, BL21(DE3) E. coli was cotransfected with pGEX-GST-VHL/ElonginB and pGEX-GSTElonginC plasmid. Protein expression was induced by 100 μM isopropyl beta-D-thiogalactopyranoside (IPTG, Fisher Scientific) at 18° C.overnight. Then, the bacterial culture was centrifuged and sonicated in PBS buffer with protease inhibitor cocktail. Protein lysates were further purified with glutathione-Sepharose beads (GE17-0756-05) and washed with PBS for 5 times.\nGlutathione-Sepharose beads loaded with GST-VHL E3 ligase complex were incubated at 4° C. with cell lysate derived from HEK293T cells that ectopic transfected with individual transfection factor. After incubation for 3 hours, TF-PROTACs were added into the mixture for another 2 hours, followed by wash with NETN buffer for 3 times. The pulldown products were further separated by 10% SDS-PAGE and blotted for indicated proteins."}}}
{"substance": "dNF-κB #16 (TGGGGACTTTCCAGTTTCTGGAAAGTCCCCA; decoy; VHL ligand conjugate via PEG3 linker, further chemistry not given here)", "values": [{"measurement": "proliferation of HeLa cells (cell number)", "setting": "[1]", "value": "repressed the proliferation of HeLa cells"}, {"measurement": "ubiquitination of p65 in cells", "setting": "[2]", "value": "lead to the ubiquitination of p65 in cells"}, {"measurement": "VHL E3 ligase-p65 binding (ternary complex) induced by PROTAC", "setting": "[3]", "value": "recruited the binding between the VHL E3 ubiquitin ligase and p65 in vitro"}]}
